From patent publication US12077503B2, “Substituted cyclic amides and their use as herbicides” (FMC CORPORATION, priority 2015, dated 2024)

Tests used:
Type in all cases: in vivo
[1] = system: ducksalad (Heteranthera limosa); experiment: Test B flooded paddy test; conditions: Flood, 250 g ai/ha; 0 to 100 scale where 0 is no effect and 100 is complete control; 13 to 15 d
Summary of the method: (§1)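 Visual ratings (0 none to 100 complete control) are relative to untreated plants, taken 13–15 d after treatment in a greenhouse. Test material went straight into floodwater standing 3 cm above the soil, kept constant, on plants at the 2-leaf stage.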

[2] = system: sedge, umbrella (small-flower umbrella sedge, Cyperus difformis); experiment: Test B flooded paddy test; conditions: Flood, 250 g ai/ha; 0 to 100 scale where 0 is no effect and 100 is complete control; 13 to 15 d
Summary of the method: as §1

[3] = system: barnyardgrass (Echinochloa crus-galli); experiment: Test B flooded paddy test; conditions: Flood, 250 g ai/ha; 0 to 100 scale where 0 is no effect and 100 is complete control; 13 to 15 d
Summary of the method: as §1

rice (Oryra sativa) = experiment: Test B flooded paddy test; conditions: Flood, 250 g ai/ha; 0 to 100 scale where 0 is no effect and 100 is complete control; 13 to 15 d
Summary of the method: as §1

[4] = system: pigweed (Amaranthus retroflexus); experiment: Test A postemergence
Summary of the method: (§2)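 Visual injury scores from 0, no effect, to 100, complete control, were assigned versus untreated controls roughly 10 d after treatment in the greenhouse. Test chemicals, formulated with surfactant in a non-phytotoxic solvent, were applied to planted seeds as a preemergence soil spray or postemergence to one- to two-leaf plants 2 to 10 cm tall, in loam–sand soil.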

[5] = system: wheat (Triticum aestivum); experiment: Test A postemergence
Summary of the method: as §2

[6] = system: ryegrass, Italian (Italian ryegrass, Lolium multiflorum); experiment: Test A postemergence
Summary of the method: as §2

Kochia (Kochia scoparia) [7] = experiment: Test A postemergence
Summary of the method: as §2

[8] = system: giant foxtail (Setaria faberii); experiment: Test A postemergence
Summary of the method: as §2

[9] = system: blackgrass (Alopecurus myosuroides); experiment: Test A postemergence
Summary of the method: as §2

[10] = system: barnyardgrass (Echinochloa crus-galli); experiment: Test A postemergence
Summary of the method: as §2

[11] = system: ragweed (common ragweed, Ambrosia elatior); experiment: Test A postemergence
Summary of the method: as §2

[12] = system: Galium (catchweed bedstraw, Galium aparine); experiment: Test A postemergence
Summary of the method: as §2

corn (Zea mays) = experiment: Test A postemergence
Summary of the method: as §2

[13] = system: pigweed (Amaranthus retroflexus); experiment: Test A preemergence
[14] = system: ryegrass, Italian (Italian ryegrass, Lolium multiflorum); experiment: Test A preemergence
Summary of the method: as §2

Kochia (Kochia scoparia) [15] = experiment: Test A preemergence
Summary of the method: as §2

[16] = system: giant foxtail (Setaria faberii); experiment: Test A preemergence
Summary of the method: as §2

[17] = system: barnyardgrass (Echinochloa crus-galli); experiment: Test A preemergence
Summary of the method: as §2

[18] = system: ragweed (common ragweed, Ambrosia elatior); experiment: Test A preemergence
Summary of the method: as §2

[19] = 125 g ai/ha, postemergence, visual injury rating on 0 to 100 scale (0 no effect, 100 complete control), approx. 10 d
[20] = Postemergence, 500 g ai/ha, 0 to 100 scale where 0 is no effect and 100 is complete control
[21] = 125 g ai/ha, Preemergence, visual injury after approximately 10 d, 0 to 100 scale where 0 is no effect and 100 is complete control
[22] = Preemergence, 500 g ai/ha, visual injury approx. 10 d
[23] = 125 g ai/ha, postemergence, visual rating after approx. 10 d, 0 to 100 scale (0 no effect, 100 complete control)
[24] = 500 g ai/ha, preemergence, 0 to 100 scale, 0 = no effect, 100 = complete control

Compound	Plant response rating, Ducksalad [1]	Plant response rating, Sedge, Umbrella [2]	Plant response rating, Barnyardgrass [3]	Plant response rating, Rice (rice (Oryra sativa))	Plant response rating, Pigweed [4, 20]	Plant response rating, Wheat [5, 20]	Plant response rating, Ryegrass, Italian [6, 20]	Plant response rating, Kochia (Kochia (Kochia scoparia) [7]; [20])	Plant response rating, Foxtail, Giant [8, 20]	Plant response rating, Blackgrass [9, 20]	Plant response rating, Barnyardgrass [10, 20]	Plant response rating, Ragweed [11, 20]	Plant response rating, Galium [12, 20]	Plant response rating, Corn (corn (Zea mays); [20])	Plant response rating, Pigweed [13, 21]	Plant response rating, Ryegrass, Italian [14, 21]	Plant response rating, Kochia (Kochia (Kochia scoparia) [15]; [21])	Plant response rating, Foxtail, Giant [16, 21]	Plant response rating, Barnyardgrass [17, 21]	Plant response rating, Ragweed [18, 21]	other results
O=C(Nc1ccccc1F)C1C(=O)N(CC=CCl)CC1c1cccc(C(F)(F)F)c1 (stereo not drawn) [Compound 483]	30	0	0	0	0	0	0	20	70	0	60	0	0	0	0	0	0	70	0	0	Pigweed plant response rating [4, 19]: 0; Wheat plant response rating [5, 19]: 0; Ryegrass, Italian plant response rating [6, 19]: 0; Kochia plant response rating (Kochia (Kochia scoparia) [7]; [19]): 0; Foxtail, Giant plant response rating [8, 19]: 20; Blackgrass plant response rating [9, 19]: 0; Barnyardgrass plant response rating [10, 19]: 20; Ragweed plant response rating [11, 19]: 0; Galium plant response rating [12, 19]: 0; Corn plant response rating (corn (Zea mays); [19]): 0; Pigweed plant response rating (0 to 100 scale, 0 is no effect, 100 is complete control) [13, 22]: 0; Ryegrass, Italian plant response rating (0 to 100 scale, 0 is no effect, 100 is complete control) [14, 22]: 30; Kochia plant response rating (0 to 100 scale, 0 is no effect, 100 is complete control) (Kochia (Kochia scoparia) [15]; [22]): 0; Foxtail, Giant plant response rating (0 to 100 scale, 0 is no effect, 100 is complete control) [16, 22]: 90; Barnyardgrass plant response rating (0 to 100 scale, 0 is no effect, 100 is complete control) [17, 22]: 70; Ragweed plant response rating (0 to 100 scale, 0 is no effect, 100 is complete control) [18, 22]: 0
O=C1NCC(c2ccc(F)cc2F)C1C(=O)Nc1ccccc1F (stereo not drawn) [Compound 620]	65	0	10	0	0	0	0	0	50	0	60	0	20	0	0	0	0	80	70	0	Plant response rating, Pigweed [4, 23]: 0; Plant response rating, Wheat [5, 23]: 0; Plant response rating, Ryegrass, Italian [6, 23]: 0; Plant response rating, Kochia (Kochia (Kochia scoparia) [7]; [23]): 0; Plant response rating, Foxtail, Giant [8, 23]: 30; Plant response rating, Blackgrass [9, 23]: 0; Plant response rating, Barnyardgrass [10, 23]: 20; Plant response rating, Ragweed [11, 23]: 0; Plant response rating, Galium [12, 23]: 0; Plant response rating, Corn (corn (Zea mays); [23]): 0; Plant response rating, Pigweed [13, 24]: 0; Plant response rating, Ryegrass, Italian [14, 24]: 0; Plant response rating, Kochia (Kochia (Kochia scoparia) [15]; [24]): 20; Plant response rating, Foxtail, Giant [16, 24]: 90; Plant response rating, Barnyardgrass [17, 24]: 80; Plant response rating, Ragweed [18, 24]: 0
